Measured values as given in PubChem BioAssay AID1259407 (Chemical Carcinogenesis Research Information System (CCRIS), 2018).
Calls of active or inactive are those of the source. How the calls were made is not given here.

Test system: CCRIS mutagenicity, Ames/micronucleus/aberration tests
Assay: CCRIS mutagenicity studies
[1] = Test System: AMES SALMONELLA TYPHIMURIUM, Strain/Indicator: TA98, Metabolic Activation: NONE, Method: STANDARD PLATE
[2] = Test System: AMES SALMONELLA TYPHIMURIUM, Strain/Indicator: TA100, Metabolic Activation: NONE, Method: STANDARD PLATE
[3] = Test System: AMES SALMONELLA TYPHIMURIUM, Strain/Indicator: TA1535, Metabolic Activation: NONE, Method: STANDARD PLATE
[4] = Test System: AMES SALMONELLA TYPHIMURIUM, Strain/Indicator: TA1537, Metabolic Activation: NONE, Method: STANDARD PLATE
[5] = Test System: AMES SALMONELLA TYPHIMURIUM, Strain/Indicator: TA98, Metabolic Activation: RAT, LIVER, S-9, AROCLOR 1254, Method: STANDARD PLATE
[6] = Test System: AMES SALMONELLA TYPHIMURIUM, Strain/Indicator: TA100, Metabolic Activation: RAT, LIVER, S-9, AROCLOR 1254, Method: STANDARD PLATE
[7] = Test System: AMES SALMONELLA TYPHIMURIUM, Strain/Indicator: TA1535, Metabolic Activation: RAT, LIVER, S-9, AROCLOR 1254, Method: STANDARD PLATE
[8] = Test System: AMES SALMONELLA TYPHIMURIUM, Strain/Indicator: TA1537, Metabolic Activation: RAT, LIVER, S-9, AROCLOR 1254, Method: STANDARD PLATE
[9] = Test System: AMES SALMONELLA TYPHIMURIUM, Strain/Indicator: TA1538, Metabolic Activation: NONE, Method: STANDARD PLATE

Structure (SMILES): c1cc[n+]2c(c1)-c1cccc[n+]1CC2
- mutagenic call (Test System: AMES SALMONELLA TYPHIMURIUM, Strain/Indicator: TA102, Metabolic Activation: NONE, Method: STANDARD PLATE): inactive; negative
- mutagenic call (Test System: AMES SALMONELLA TYPHIMURIUM, Strain/Indicator: TA2638, Metabolic Activation: NONE, Method: STANDARD PLATE): inactive; negative
- mutagenic call (Test System: E. COLI, Strain/Indicator: WP2 (PKM101), Metabolic Activation: NONE, Method: STANDARD PLATE): inactive; negative
- mutagenic call (Test System: E. COLI, Strain/Indicator: WP2 UVRA (PKM101), Metabolic Activation: NONE, Method: STANDARD PLATE): inactive; negative

Structure (SMILES): CCOCCl
- mutagenic call (Test System: E. COLI, Strain/Indicator: H/R30R, Metabolic Activation: NONE, Method: PREINCUBATION): active; positive
- mutagenic call (Test System: E. COLI, Strain/Indicator: HS30R UVRA, Metabolic Activation: NONE, Method: PREINCUBATION): active; positive

Structure (SMILES): CCCCN(CCC(=O)OC)N=O
- mutagenic call (Test System: AMES SALMONELLA TYPHIMURIUM, Strain/Indicator: TA1535, Metabolic Activation: RAT, LIVER, S-9, KC500 OR PHENOBARBITAL, Method: LIQUID SUSPENSION): active; positive

Structure (SMILES): CCN(N=O)C(=O)Nc1ccccc1
- mutagenic call (End Point: IN VITRO CHROMOSOMAL ABERRATIONS, Test System: CHINESE HAMSTER V79-E CELLS, Metabolic Activation: NONE): active; positive (structural changes)

Structure (SMILES): COc1cc(/C=C/C(=O)O[C@H]2CC[C@]34C[C@]35CC[C@]3(C)[C@@H]([C@H](C)CCC=C(C)C)CC[C@@]3(C)[C@@H]5CC[C@H]4C2(C)C)ccc1O
- mutagenic call [1]: inactive; negative
- mutagenic call (Test System: AMES SALMONELLA TYPHIMURIUM, Strain/Indicator: TA98, Metabolic Activation: S9, Method: STANDARD PLATE): inactive; negative
- mutagenic call [2]: inactive; negative
- mutagenic call (Test System: AMES SALMONELLA TYPHIMURIUM, Strain/Indicator: TA100, Metabolic Activation: S9, Method: STANDARD PLATE): inactive; negative
- mutagenic call [3]: inactive; negative
- mutagenic call (Test System: AMES SALMONELLA TYPHIMURIUM, Strain/Indicator: TA1535, Metabolic Activation: S9, Method: STANDARD PLATE): inactive; negative
- mutagenic call [4]: inactive; negative
- mutagenic call (Test System: AMES SALMONELLA TYPHIMURIUM, Strain/Indicator: TA1537, Metabolic Activation: S9, Method: STANDARD PLATE): inactive; negative
- mutagenic call (Test System: E.COLI, Strain/Indicator: WP2 UVRA, Metabolic Activation: NONE, Method: STANDARD PLATE): inactive; negative
- mutagenic call (Test System: E.COLI, Strain/Indicator: WP2 UVRA, Metabolic Activation: S9, Method: STANDARD PLATE): inactive; negative

Structure (SMILES): C=C(OC)[C@H](CSCC(Br)c1ccccc1)NC(=O)CC (some centres not stated)
- mutagenic call (Test System: AMES SALMONELLA TYPHIMURIUM, Strain/Indicator: TA100, Metabolic Activation: NONE, Method: SPOT TEST): inactive; negative

Structure (SMILES): CCCCOc1cc(Br)ccc1C(=O)NOC(C)=O
- mutagenic call [2]: active; positive
- mutagenic call (Test System: AMES SALMONELLA TYPHIMURIUM, Strain/Indicator: TA100, Metabolic Activation: RAT, S-9, AROCLOR, Method: STANDARD PLATE): active; positive

Structure (SMILES): CC(=O)n1ncc(Cl)c(Cl)c1=O
- mutagenic call [1]: inactive; negative
- mutagenic call [5]: inactive; negative
- mutagenic call [2]: inactive; negative
- mutagenic call [6]: inactive; negative
- mutagenic call [3]: inactive; negative
- mutagenic call [7]: inactive; negative
- mutagenic call [4]: inactive; negative
- mutagenic call [8]: inactive; negative

Structure (SMILES): O=[N+]([O-])c1ccccc1SSC(F)=C(Cl)Cl
- mutagenic call (Test System: AMES SALMONELLA TYPHIMURIUM, Strain/Indicator: TA100(DNP6), Metabolic Activation: NONE, Method: PREINCUBATION): active; positive
- mutagenic call (Test System: AMES SALMONELLA TYPHIMURIUM, Strain/Indicator: TA100(NR), Metabolic Activation: NONE, Method: PREINCUBATION): active; positive

Structure (SMILES): CCN[C@H](C)C[C@@H](C)NCC.[Cl-].[Cl-].[Pt+2]
- mutagenic call (Test System: AMES SALMONELLA TYPHIMURIUM, Strain/Indicator: TA97A, Metabolic Activation: NONE, Method: STANDARD PLATE): inactive; negative
- mutagenic call [2]: inactive; negative

Structure (SMILES): C[Si](C)(C)O[Si](C)(C)O[Si](C)(C)C
- mutagenic call (Test System: AMES SALMONELLA TYPHIMURIUM, Strain/Indicator: TA98, Metabolic Activation: HAMSTER, LIVER, S-9, AROCLOR 1254, Method: STANDARD PLATE): inactive; negative
- mutagenic call [1]: inactive; negative
- mutagenic call [5]: inactive; negative
- mutagenic call (Test System: AMES SALMONELLA TYPHIMURIUM, Strain/Indicator: TA100, Metabolic Activation: HAMSTER, LIVER, S-9, AROCLOR 1254, Method: STANDARD PLATE): inactive; negative
- mutagenic call [2]: inactive; negative
- mutagenic call [6]: inactive; negative
- mutagenic call (Test System: AMES SALMONELLA TYPHIMURIUM, Strain/Indicator: TA1535, Metabolic Activation: HAMSTER, LIVER, S-9, AROCLOR 1254, Method: STANDARD PLATE): inactive; negative
- mutagenic call [3]: inactive; negative
- mutagenic call [7]: inactive; negative
- mutagenic call (Test System: AMES SALMONELLA TYPHIMURIUM, Strain/Indicator: TA1537, Metabolic Activation: HAMSTER, LIVER, S-9, AROCLOR 1254, Method: STANDARD PLATE): inactive; negative
- mutagenic call [4]: inactive; negative
- mutagenic call [8]: inactive; negative
- mutagenic call (Test System: AMES SALMONELLA TYPHIMURIUM, Strain/Indicator: TA1538, Metabolic Activation: HAMSTER, LIVER, S-9, AROCLOR 1254, Method: STANDARD PLATE): inactive; negative
- mutagenic call [9]: inactive; negative
- mutagenic call (Test System: AMES SALMONELLA TYPHIMURIUM, Strain/Indicator: TA1538, Metabolic Activation: RAT, LIVER, S-9, AROCLOR 1254, Method: STANDARD PLATE): inactive; negative
- mutagenic call (Test System: E. COLI, Strain/Indicator: WP2, Metabolic Activation: NONE, Method: STANDARD PLATE): inactive; negative
- mutagenic call (Test System: E. COLI, Strain/Indicator: WP2, Metabolic Activation: RAT, LIVER, S-9, AROCLOR 1254, Method: STANDARD PLATE): inactive; negative
- mutagenic call (Test System: MOUSE LYMPHOMA, Strain/Indicator: L5178Y (TK+/TK-), Metabolic Activation: NONE, Method: SUSPENSION/PLATE): active; positive. reevaluation of results: positive
- mutagenic call (Test System: MOUSE LYMPHOMA, Strain/Indicator: L5178Y (TK+/TK-), Metabolic Activation: RAT, LIVER, S-9, AROCLOR 1254, Method: SUSPENSION/PLATE): inactive; negative. reevaluation of results: negative

Structure (SMILES): CCCCC(CC)COC(=O)COc1ccc(Cl)cc1Cl (configuration not stated)
- mutagenic call [1]: inactive; negative
- mutagenic call (Test System: AMES SALMONELLA TYPHIMURIUM, Strain/Indicator: TA98, Metabolic Activation: RAT LIVER S-9, AROCLOR 1254, 10%, Method: STANDARD PLATE): inactive; negative
- mutagenic call [2]: inactive; negative
- mutagenic call (Test System: AMES SALMONELLA TYPHIMURIUM, Strain/Indicator: TA100, Metabolic Activation: RAT LIVER S-9, AROCLOR 1254, 10%, Method: STANDARD PLATE): inactive; negative
- mutagenic call [3]: inactive; negative
- mutagenic call (Test System: AMES SALMONELLA TYPHIMURIUM, Strain/Indicator: TA1535, Metabolic Activation: RAT LIVER S-9, AROCLOR 1254, 10%, Method: STANDARD PLATE): inactive; negative
- mutagenic call [4]: inactive; negative
- mutagenic call (Test System: AMES SALMONELLA TYPHIMURIUM, Strain/Indicator: TA1537, Metabolic Activation: RAT LIVER S-9, AROCLOR 1254, 10%, Method: STANDARD PLATE): inactive; negative
- mutagenic call [9]: inactive; negative
- mutagenic call (Test System: AMES SALMONELLA TYPHIMURIUM, Strain/Indicator: TA1538, Metabolic Activation: RAT LIVER S-9, AROCLOR 1254, 10%, Method: STANDARD PLATE): inactive; negative
- mutagenic call (Test System: UDS RAT HEPATOCYTES, Strain/Indicator: THYMIDINE INCORPORATION, Metabolic Activation: NONE, Method: AUTORADIOGRAPHY): inactive; negative

Structure (SMILES): CCOC(=O)C(C)Br (configuration not stated)
- mutagenic call [2]: active; positive

Structure (SMILES): C=CCc1ccccc1N.[Cl-].[Cl-].[Pd+2]
- mutagenic call (Test System: AMES SALMONELLA TYPHIMURIUM, Strain/Indicator: TA92, Metabolic Activation: NONE, Method: STANDARD PLATE): inactive; negative
- mutagenic call [1]: inactive; negative
- mutagenic call [2]: active; positive
- mutagenic call (Test System: AMES SALMONELLA TYPHIMURIUM, Strain/Indicator: TA2410, Metabolic Activation: NONE, Method: STANDARD PLATE): active; positive

Structure (SMILES): O=C(O)Nc1ccccc1
- mutagenic call [1]: inactive; negative
- mutagenic call [5]: inactive; negative
- mutagenic call [2]: inactive; negative
- mutagenic call [6]: inactive; negative
